These results are taken from PubChem BioAssay AID1259407 (Chemical Carcinogenesis Research Information System (CCRIS), 2018).

Activity calls are given as the source filed them. How the calls were made is not given here.

The series deals with CCRIS mutagenicity, Ames/micronucleus/aberration tests. Put plainly: CCRIS mutagenicity studies. The note with it: Test System: AMES SALMONELLA TYPHIMURIUM
Where [1] appears, read: Strain/Indicator: TA98, Metabolic Activation: RAT, LIVER, S-9, AROCLOR 1254, Method: STANDARD PLATE.
The mark [2] stands for this setting: Strain/Indicator: TA100, Metabolic Activation: RAT, LIVER, S-9, AROCLOR 1254, Method: STANDARD PLATE.
Where [3] appears, read: Strain/Indicator: TA98, Metabolic Activation: NONE, Method: PREINCUBATION
Setting [4] is: Strain/Indicator: TA100, Metabolic Activation: NONE, Method: PREINCUBATION
Setting [5] is: Strain/Indicator: TA1538, Metabolic Activation: NONE, Method: STANDARD PLATE.
Setting [6] is: Strain/Indicator: TA98, Metabolic Activation: NONE, Method: STANDARD PLATE.

With `c1ccc2c(c1)cc1ccc3cccc4ncc2c1c34`, the mutagenic call is “active; positive” under setting [1] and “active; positive” under setting [2].
On to `CC(=O)Nc1cnc2ccccc2c1`, for which the mutagenic call under setting [3] was “inactive; negative”; the mutagenic call (Strain/Indicator: TA98, Metabolic Activation: RAT, LIVER, S-9, KANECHLOR 500, Method: PREINCUBATION) is “inactive; negative”; the mutagenic call under setting [4] is “inactive; negative”; the mutagenic call (Strain/Indicator: TA100, Metabolic Activation: RAT, LIVER, S-9, KANECHLOR 500, Method: PREINCUBATION) is “inactive; negative”.
On to `O=c1oc2ccccc2c(O)c1C1CCCc2ccccc21` (stereo not given), for which the mutagenic call (Strain/Indicator: TA97, Metabolic Activation: NONE) was “inactive; negative”; the mutagenic call (Strain/Indicator: TA97, Metabolic Activation: S-9) was “inactive; negative”; the mutagenic call (Strain/Indicator: TA98, Metabolic Activation: NONE) is “inactive; negative”; the mutagenic call (Strain/Indicator: TA98, Metabolic Activation: S-9) was “inactive; negative”; the mutagenic call (Strain/Indicator: TA100, Metabolic Activation: NONE) was “inactive; negative”; the mutagenic call (Strain/Indicator: TA100, Metabolic Activation: S-9) is “inactive; negative”. In addition, the mutagenic call is “inactive; negative” (Strain/Indicator: TA102, Metabolic Activation: NONE) and “inactive; negative” (Strain/Indicator: TA102, Metabolic Activation: S-9).
As to `CC1=CC(=C(C#N)C#N)C=C(C=Cc2ccc(N(C)C)cc2)O1`, the mutagenic call is “active; positive” (Strain/Indicator: TA96, Metabolic Activation: RAT, LIVER, S-9, AROCLOR 1254, Method: STANDARD PLATE); “active; positive” (Strain/Indicator: TA97, Metabolic Activation: RAT, LIVER, S-9, AROCLOR 1254, Method: STANDARD PLATE); “active; positive” under setting [1]; “active; positive” under setting [2]; “active; positive” (Strain/Indicator: TA102, Metabolic Activation: RAT, LIVER, S-9, AROCLOR 1254, Method: STANDARD PLATE); “active; positive” (Strain/Indicator: TA104, Metabolic Activation: RAT, LIVER, S-9, AROCLOR 1254, Method: STANDARD PLATE). Further, the mutagenic call under setting [5] was “inactive; negative”; the mutagenic call (Strain/Indicator: TA1538, Metabolic Activation: RAT, LIVER, MICROSOMES, 3-METHYLCHOLANTHRENE, Method: STANDARD PLATE) was “active; positive”; the mutagenic call (Strain/Indicator: TA1538, Metabolic Activation: RAT, LIVER, MICROSOMES, AROCLOR 1254, Method: STANDARD PLATE) is “active; positive”; the mutagenic call (Strain/Indicator: TA1538, Metabolic Activation: RAT, LIVER, MICROSOMES, PHENOBARBITAL, Method: STANDARD PLATE) was “active; positive”; the mutagenic call (Strain/Indicator: TA1538, Metabolic Activation: RAT, LIVER, MICROSOMES, Method: STANDARD PLATE) was “active; positive”; the mutagenic call (Strain/Indicator: TA1538, Metabolic Activation: RAT, LIVER, S-9, AROCLOR 1254, Method: STANDARD PLATE) was “active; positive”.
With `Nc1ccc(CC(=O)O)cc1`, the mutagenic call was “inactive; negative” under setting [6] and “active; positive” (Strain/Indicator: TA98, Metabolic Activation: RAT, LIVER, S-9, Method: STANDARD PLATE).
Turning to `Nc1ccc2c(c1)[nH]c1ccccc12`, the mutagenic call is “active; positive” under setting [6]; “active; positive” (Strain/Indicator: TA98, Metabolic Activation: RAT, LIVER, S-9, PHENOBARBITAL, Method: STANDARD PLATE); “inactive; negative” (Strain/Indicator: TA100, Metabolic Activation: NONE, Method: STANDARD PLATE); “active; positive” (Strain/Indicator: TA100, Metabolic Activation: RAT, LIVER, S-9, PHENOBARBITAL, Method: STANDARD PLATE); “inactive; negative” (Strain/Indicator: TA1537, Metabolic Activation: NONE, Method: STANDARD PLATE); “active; positive” under setting [5]. Also, the mutagenic call (Strain/Indicator: TA1538, Metabolic Activation: RAT, LIVER, S-9, PHENOBARBITAL, Method: STANDARD PLATE) is “active; positive”; the mutagenic call (Strain/Indicator: TA1977, Metabolic Activation: NONE, Method: STANDARD PLATE) was “inactive; negative”; the mutagenic call (Strain/Indicator: TA1977, Metabolic Activation: RAT, LIVER, S-9, PHENOBARBITAL, Method: STANDARD PLATE) was “inactive; negative”.
`O=[N+]([O-])c1cccc(CBr)c1`: the mutagenic call by setting is: under setting [3], “inactive; negative”; under setting [4], “inactive; negative”; (Strain/Indicator: TA100, Metabolic Activation: RAT, LIVER, S-9, AROCLOR 1254, Method: PREINCUBATION) “inactive; negative”.
